Measurements as given in patent publication US12611392B2, “Mitochondria-targeting antioxidants” (GIVAUDAN SA, priority 2019, dated 2026).
Read-outs that look alike come from different tables or passages of the source.

How the values were obtained:
[1] = cited from earlier work
[2] = Partition between octan-1-ol and aqueous solution at pH 7.0 (log P / log D); settings: for partition in octan-1-ol: octan-1-ol / water pH 7.0; for share in the aqueous phase: octan-1-ol / water
Experimental: In a 10-mL glass tube, two milligrams of sinapine, sinapic acid or MitoTEMPO were added by 4 mL of a 75 mM KH2PO4 buffer solution (aqueous phase), and 4 mL of octan-1-ol. The mixture was then vortexed for 1 hour at room temperature and left to equilibrate for 30 min for sinapic acid and sinapine, and overnight for MitoTEMPO. Both phases were collected with a Pasteur pipette and extemporaneously analyzed by LC-MS using the procedure described below in section 2.7.
The partition coefficient of sinapine, sinapic acid and MitoTEMPO (a commercially-available mitonchondria-targeting superoxide dismutase (SOD) mimetic) between two immiscible liquid phases (octan-1-ol and an aqueous solution at pH 7.0) was measured.

[3] = tested on: ROS production in cardiac tissue; assay: ROS production by dihydroethidium (DHE) staining of cardiac tissue after ischemia-reperfusion; design: species or system rat; settings: 10 min after IR; for reduction of DHE fluorescence compared to control hearts: MitoT 0.1 μM, sinapine 60 μM
Experimental: LV samples were embedded in Optimal Cutting Temperature (OCT from Tissue-Tek) and flash-frozen in liquid nitrogen. Frozen sections were covered with 10 μM DHE and incubated in alight-protected humidified chamber at 37° C. for 5 min. Images were obtained with a fluorescence microscope (Olympus BX60, Excitation: 488 nm; emission: 610 nm) at the Imaging facility 3A INRA/University of Avignon. SOD-mimetic TEMPOL (10 mM, Santa Cruz Biotechnology) was used as a negative control to confirm that the signals resulted from ROS production.

[4] = Oxygen radical absorbance capacity (ORAC) assay; settings: aqueous solution; n=4
Source text: (§1) The result of this operation gave the net area under the curve (AUC) which was then plotted on a graph as a function of the concentration.

[5] = Conjugated autoxidizable triene (CAT) assay; settings: oil-in-water microemulsion; n=3
Source text: as §1

cardiomyocytes = assay: Cytosol/mitochondria partitioning in cardiomyocytes by LC-MS/MS
Experimental: (§2) Ventricular cardiomyocytes were isolated from 200-250 g male adult Wistar rats as previously described (Cazorla et al. Transmural stretch-dependent regulation of contractile properties in rat heart and its alteration after myocardial infarction. FASEB J. 2005, 19, 88-90). The rats were anesthetized by i.p. injection of pentobarbital sodium (100 mg/kg) with heparin (100 U). The heart was rapidly excised, rinsed in ice-cold Hanks-HEPES buffer (in mM: NaCl 117, KCl 5.7. NaHCO3 4.4, KH2PO4 1.5. MgCl2 1.7, HEPES 21, glucose 11.7, taurine 20. pH at 7.15) mounted on a Langendort perfusion system and perfused (3 mi/min, at 37° C.) first with a Hanks-HEPES buffer for 5 min to be cleared from blood, then with a buffer supplemented with 1.2 mg/mL collagenase type 4 (Worthington, Lakewood, N.J., USA) for 13-18 min. Small pieces of left ventricle were dissected and mechanically dissociated. […] Experiments were performed in Tyrode solution with 1.8 mM Ca^2+.
Antioxidants were also quantified in cardiomyocytes using LC-MS/MS. Cardiomyocytes (100,000 cells/mL) were incubated in Tyrode for 1 or 2 h with different concentrations of sinapine (2, 20, and 60 μM) or sinapic acid (Sigma Aldrich, 2, 20, and 60 μM). Extracellular, cytosolic and mitochondrial fractions were obtained and frozen in liquid nitrogen until HPLC measurement. After incubation, cells were sedimented and the supernatant collected for the extracellular fraction. The pellet of cells was rinsed twice in Tyrode. Cells were incubated with PBS containing digitonine (5 mg/mL) for 10 min on ice. Cells were centrifugated at 10,000 g for 20 min at 4° C., and the supernatant consisting in the cytosolic fraction was collected. The mitochondrial fraction was collected after rinsing five times the pellets in PBS to avoid contamination of the cytosolic fraction.
These different fractions were then analyzed using an Agilent Poroshell EC-C18 120, 2.7 microns, 2.1×150 mm analytical column on an Agilent 1290 Infinity II series pump. Injection volume was 1 μL. HPLC flow rate was 0.3 mL/min with the following mobile phases: water with 0.1% formic acid (A) and acetonitrile with 0.1% formic acid (B). The gradient was as follows: 0.0-3.0 min 0-30% B, 3.0-7.0 min 30-60% B, then a stabilization step of 4 min at the initial condition. Autosampler tray temperature was set to 10° C. and column temperature was set to 25° C. Detection was performed with an Agilent 6420 triple quadrupole in positive ionization mode with ESI source, gas temperature 325° C., gas flow 9 L/min, nebulizer 35 psi, and capillary voltage 3500 V. Mass spectrometer was working in MRM mode acquisition following the specific transition for Isoproturon-d3 (internal standard 210.2→75.0), Sinapine 310.2→251.1 (qualifier 175.0 and 91.0) and Sinapic acid 225.1→207.0 (qualifier 91.0 and 65.0).
To further evaluate if a positively charged moiety (such as choline) can endowed an antioxidant devoid of any lipid affinity with the ability to accumulate in mitochondria, we incubated sinapine and sinapic acid (lacking the choline group, i.e. negative control) in intact cardiomyocytes at three concentrations (2, 20, and 60 μM) for 1 or 2 h. Then, the mitochondrial fraction was separated from the cytosolic one using differential centrifugation. The levels of sinapine and sinapic acid were measured in each subcellular fraction using LC-MS/MS.

[6] = Plasmatic and tissular levels after oral administration of sinapine; assay type: in vivo, rat; settings: oral sinapine 200 mg/kg; for level in cytosolic and mitochondrial fractions of the heart: 120 min post-gavage; for plasmatic level: 10, 30, 60, 120 min
Experimental: To evaluate plasmatic and tissular bioavailability of sinapine, rats received 200 mg/kg of sinapine by oral gavage. […] Sinapine and sinapic acid were then quantified in plasma using the following procedure: plasma (50 μL) is mixed with internal standard solution (50 μL in methanol at 10 ng/mL) and mix on a vortex for 1 minute. The solution is then centrifuge for 3 minutes at 12000 rpm, and the supernatant injected into HPLC/MS for quantification. At the end of the procedure the animals were sacrificed and hearts quickly removed. The right ventricle cleaned and LV samples frozen in liquid nitrogen. LV tissue was homogenized in 2 mL of mitochondria isolation buffer (pH 7.2; in mM: 300 saccharose, 5 TES. 0.2 EGTA), using a Polytron (Ultra Turrax T25, IKA Labortechnik). The homogenate was centrifugated at 1,000 g for 10 min at 4° C. To separate cytosolic fraction from the mitochondrial one, the supernatant was centrifugated at 12,000 g for 15 min to 4° C., then collected (cytosolic fraction), while the pellet was collected for mitochondria fraction. To optimize the release of mitochondria materials, the pellet was homogenized in 2% Triton-X lysis buffer during 10 min on ice. To remove Triton-X, mitochondrial fraction was washed, then centrifuged (12,000 g for 15 min at 4° C.) and the pellet was resuspended in mitochondria isolation buffer. Cytosolic and mitochondria fraction obtained were quickly frozen in liquid nitrogen until HPLC measurement. To do so, mitochondria was extracted with the same procedure as for plasma procedure. Cytosol (50 μL) was pipetted into 10 mL volumetric flask, spiked successively with internal standard solution (200 μL at 250 ng/mL in methanol) and 5 mL of methanol-water (50/50 v:v). The flask was ultrasonicated for 5 min, and once cooled down, completed to 10 mL with methanol-water (50/50 v:v). Both the mitochondrial and the cytosolic fractions were analyzed with the LC-MS/MS procedure described above.
After 120 min post-gavage, the heart was removed, rinsed and quickly frozen in liquid nitrogen.

[7] = tested on: ROS production in isolated adult rat cardiomyocytes; assay: H2O2 and antimycin A-induced oxidative stress in cardiomyocytes (H2DCF-DA and DHR123 probes); assay type: cell-based; settings: for effect on H2O2-induced increase in H2DCF-DA fluorescence (cytosolic ROS): 0.1 mM H2O2, 1 h pre-incubation; for effect on H2O2-induced increase in H2DCF-DA fluorescence (cytosolic ROS) / effect of pre-incubation on basal H2DCF-DA and DHR123 fluorescence: sinapic acid 60 μM; for effect of pre-incubation on basal H2DCF-DA and DHR123 fluorescence: control (basal) cells, no stress, sinapine 6 or 60 μM, 1 h
Experimental: Cardiomyocytes (30,000 cell/mL) were incubated with sinapine or sinapic acid for 1 h. Thirty minutes before the end, a fluorogenic probe was added. We used dihydrorhodamine 123 (DHR123) to probe mitochondrial H2O2 and peroxynitrites (Invitrogen Molecular probes Fischer scientific, D23806, Ex/Em: 508/529 nm, concentration=5 μM) and 2′,7′-dichlorodihydrofluorescein diacetate (H2DCF-DA) to probe cytosolic H2O2(Invitrogen Molecular probes Fischer scientific, D399 Ex/Em: 492/517 nm, concentration=5 μM). Cells were rinsed with a Tyrode solution and distributed in microplates for the various conditions. Some cells were stimulated with 0.1 mM H2O2(Sigma Aldrich) or with a 10 μM complex III blocker, antimycin A (AA, Sigma Aldrich) to force the cell to produce mitochondrial ROS. The microplate was immediately transferred to the microplate reader Tecan Infinite M200Pro. Fluorescence was measured at the different wavelengths every 5 min for 30 min.
Two different ROS sensitive fluorogenic probes were used, H2DCF-DA and DHR123, which are specific of cytosolic and mitochondrial ROS production, respectively (Wei et al. Nitric oxide induces oxidative stress and apoptosis in neuronal cells. Biochim. Biophys. Acta-Mol. Cell Res. 2000, 1498, 72-79; Rego et al. Influence of the antioxidants vitamin E and idebenone on retinal cell injury mediated by chemical ischemia, hypoglycemia, or oxidative stress. Free Rad Biol. Med. 1999, 26, 1405-1417; Mark et al. Basic FGF attenuates amyloid β-peptide-induced oxidative stress, mitochondrial dysfunction, and impairment of Na+/K+-ATPase activity in hippocampal neurons. Brain Res. 1997, 756, 205-214).
Myocytes loaded with one of the probes were distributed in microplate wells. ROS production was determined by following the increase of fluorescence for […]. Fluorescence was measured every 5 min and was normalized by the baseline fluorescence (T0). Some cells were incubated with either sinapine (6 or 60 μM) or sinapic acid (60 μM) for 1 h prior measurement. After the incubations, cells were washed out. Some cells were stimulated with 0.1 mM H2O2 or with a mitochondrial electron transport chain complex III blocker, 10 μM antimycin A (AA) to force mitochondria to produce mitochondrial ROS (Quinlan et al. The mechanism of superoxide production by the antimycin-inhibited mitochondrial Q-cycle. J. Biol. Chem. 2011, 286, 31361-31372).

[8] = tested on: isolated adult cardiomyocytes; settings: male, Wistar, rat, 2 μM
Experimental: as §2

[9] = 2, 20 and 60 μM, 1 or 2 h incubation

| SMILES | log D/log P (pH 7.0) [1] | partition in octan-1-ol [2] [%] | reduction of DHE fluorescence compared to control hearts [3] [%] | ORAC value [4] | share in the aqueous phase [2] [%] | level in cytosolic and mitochondrial fractions of the heart [6] | plasmatic level [6] | effect on H2O2-induced increase in H2DCF-DA fluorescence (cytosolic ROS) ([7]; sinapine 6 and 60 μM) | effect of pre-incubation on basal H2DCF-DA and DHR123 fluorescence [7] | also measured |
| --- | --- | --- | --- | --- | --- | --- | --- | --- | --- | --- |
| COC1=C(OC)C(=O)C(CCC[P+](c2ccccc2)(c2ccccc2)c2ccccc2)=C(C)C1=O [MitoQ3] | 0.5 |  |  |  |  |  |  |  |  |  |
| COC1=C(OC)C(=O)C(CCCCC[P+](c2ccccc2)(c2ccccc2)c2ccccc2)=C(C)C1=O [MitoQ5] | 1.1 |  |  |  |  |  |  |  |  |  |
| COC1=C(OC)C(=O)C(CCCCCCCCCC[P+](c2ccccc2)(c2ccccc2)c2ccccc2)=C(C)C1=O.CS(=O)(=O)[O-] [MitoQ10] | 3.4 |  |  |  |  |  |  |  |  |  |
| CC1(C)CC(NC(=O)C[P+](c2ccccc2)(c2ccccc2)c2ccccc2)CC(C)(C)N1[O] [MitoTEMPO] |  | 50 | 24 |  |  |  |  |  |  | log D (pH 7.0) ([2]; octan-1-ol / aqueous buffer, experimental): 0.0; partitioning in both phases ([2]; octan-1-ol / aqueous phase, pH 7.0): 50/50 |
| COc1cc(/C=C/C(=O)O)cc(OC)c1O [sinapic acid] |  |  |  | 2.73±0.176 mol of Trolox equivalent per mol of compound | > 85 | not found in any of the fractions | detected at all time points at a relatively stable level | prevented the increase in H2DCF-DA | no impact on the fluorescence level | CAT value [5]: 1.74±0.07 mol of Trolox equivalent per mol of compound; log P ([2]; octan-1-ol / aqueous solution at pH 7.0): −0.9; time of entry into cardiac cells (cardiomyocytes): within an hour; plasma amount of sinapic acid relative to sinapine ([6]; 2 h period): about five times more sinapic acid than sinapine; ROS production (DHE) versus Ctrl ([3]; sinapic acid 60 μM, not significant (p=0.12)): −20% |
| COc1cc(/C=C/C(=O)OCC[N+](C)(C)C)cc(OC)c1O [sinapine] |  | < 0.2 | 45 | 2.28±0.25 mol of Trolox equivalent per mol of compound | > 99 | detected and quantified in both the cytosol and mitochondria | detected at all time points at a relatively stable level | prevented the increase in H2DCF-DA | no impact on the fluorescence level | logD ([2]; pH 7): -3; logP ([2]; pH 7): -3; time after which fluorescence increased [8]: 10 to 15 min; level of the incubated compound in cytosol (cardiomyocytes; [9]): detected sinapine in a dose dependent manner; level of the incubated compound in mitochondria (cardiomyocytes; [9]): detected in a dose-dependent manner in mitochondria; share of sinapine entering the mitochondria that is hydrolyzed to sinapic acid (cardiomyocytes; after 1 or 2 h): approximately 25%; time of entry into cardiac cells (cardiomyocytes; no time-dependency between 1 and 2 h): within an hour; hydrolysis of sinapine in cytosol (sinapic acid not detected) (cardiomyocytes; sinapine incubation 1 or 2 h): no major sinapine hydrolysis; effect on antimycin A-induced increase in DHR123 fluorescence (mitochondrial ROS) ([7]; 10 μM antimycin A, 1 h pre-treatment): prevented by sinapine; dose dependence of the effect on H2O2-induced H2DCF-DA increase ([7]; sinapine 6 and 60 μM): dose-dependent |
